Test results: US20250042876A1, “HERBICIDAL PYRAZOLE PYRIMIDINE COMPOUNDS” (SYNGENTA CROP PROTECTION AG, priority 2021, published 2025)

Legend:
Assay type in all cases: in vivo
Details in all cases: 250 g/ha, evaluated after 13 days
[1] = tested on: Amaranthus palmeri (AMAPA); assay: Post-emergence herbicidal test, glasshouse
Procedure: (§1) Seeds of a variety of test species are sown in standard soil in pots Amaranthus palmeri (AMAPA), Amaranthus retoflexus (AMARE), Setaria faberi (SETFA), Echinochloa crus-galli (ECHCG), Ipomoea hederacea (IPOHE)). After cultivation for one day (pre-emergence) or after 8 days cultivation (post-emergence) under controlled conditions in a glasshouse (at 24/16° C., day/night; 14 hours light; 65% humidity), the plants are sprayed with an aqueous spray solution derived from the formulation of the technical active ingredient in acetone/water (50:50) solution containing 0.5% Tween 20 (polyoxyethelyene sorbitan monolaurate, CAS RN 9005-64-5). Compounds are applied at 250 g/ha unless otherwise stated. The test plants are then grown in a glasshouse under controlled conditions in a glasshouse (at 24/16° C., day/night; 14 hours light; 65% humidity) and watered twice daily. After 13 days for pre and post-emergence, the test is evaluated for the percentage damage caused to the plant. The biological activities are shown in the following table on a five-point scale (5=81-100%; 4=61-80%; 3=41-60%; 2=21-40%; 1=0-20%).

[2] = tested on: Amaranthus retoflexus (AMARE); assay: Post-emergence herbicidal test, glasshouse
Procedure: as §1

[3] = tested on: Echinochloa crus-galli (ECHCG); assay: Post-emergence herbicidal test, glasshouse
Procedure: as §1

[4] = tested on: Ipomoea hederacea (IPOHE); assay: Post-emergence herbicidal test, glasshouse
Procedure: as §1

[5] = tested on: Amaranthus palmeri (AMAPA); assay: Pre-emergence herbicidal test, glasshouse
Procedure: as §1

[6] = tested on: Amaranthus retoflexus (AMARE); assay: Pre-emergence herbicidal test, glasshouse
Procedure: as §1

[7] = tested on: Echinochloa crus-galli (ECHCG); assay: Pre-emergence herbicidal test, glasshouse
Procedure: as §1

[8] = tested on: Ipomoea hederacea (IPOHE); assay: Pre-emergence herbicidal test, glasshouse
Procedure: as §1

Structure (SMILES) | AMAPA percentage damage caused to the plant (five-point scale) [1] | AMARE percentage damage caused to the plant (five-point scale) [2] | ECHCG percentage damage caused to the plant (five-point scale) [3] | IPOHE percentage damage caused to the plant (five-point scale) [4] | AMAPA percentage damage caused to the plant (five-point scale) [5] | AMARE percentage damage caused to the plant (five-point scale) [6] | ECHCG percentage damage caused to the plant (five-point scale) [7] | IPOHE percentage damage caused to the plant (five-point scale) [8]
FC(F)(F)c1cc(Cc2ncc(Cl)cn2)n(-c2ccc(Cl)nc2)n1 [Compound 1.009] | 5 (5=81-100%) | 5 (5=81-100%) | 5 (5=81-100%) | 4 (4=61-80%) | 5 (5=81-100%) | 5 (5=81-100%) | 5 (5=81-100%) | 5 (5=81-100%)
N#Cc1ccc(-n2nc(C#N)cc2Cc2ncc(Cl)cn2)cn1 [Compound 1.019] | 5 (5=81-100%) | 5 (5=81-100%) | 4 (4=61-80%) | 3 (3=41-60%) | 5 (5=81-100%) | 5 (5=81-100%) | 4 (4=61-80%) | 5 (5=81-100%)
N#Cc1cc(Cc2ncc(Cl)cn2)n(-c2ccc(Cl)nc2)n1 [Compound 1.020] | 5 (5=81-100%) | 5 (5=81-100%) | 5 (5=81-100%) | 4 (4=61-80%) | 5 (5=81-100%) | 5 (5=81-100%) | 5 (5=81-100%) | 5 (5=81-100%)
Clc1cnc(Cc2cc(I)nn2-c2ccc(Cl)nc2)nc1 [Compound 1.021] | 5 (5=81-100%) | 5 (5=81-100%) | 5 (5=81-100%) | 4 (4=61-80%) | 5 (5=81-100%) | 5 (5=81-100%) | 5 (5=81-100%) | 5 (5=81-100%)
FC(F)(Cl)c1cc(Cc2ncc(Cl)cn2)n(-c2ccc(Cl)nc2)n1 [Compound 1.022] | 5 (5=81-100%) | 5 (5=81-100%) | 5 (5=81-100%) | 3 (3=41-60%) | 5 (5=81-100%) | 5 (5=81-100%) | 5 (5=81-100%) | 5 (5=81-100%)
FC(F)(Cl)c1cc(Cc2ncc(Cl)cn2)n(-c2cnc(Cl)c(Cl)c2)n1 [Compound 1.023] | 5 (5=81-100%) | 5 (5=81-100%) | 4 (4=61-80%) | 3 (3=41-60%) | 5 (5=81-100%) | 5 (5=81-100%) | 5 (5=81-100%) | 5 (5=81-100%)
Fc1ccc(-n2nc(C(F)(F)Cl)cc2Cc2ncc(Cl)cn2)cc1F [Compound 1.024] | 5 (5=81-100%) | 5 (5=81-100%) | 5 (5=81-100%) | 4 (4=61-80%) | 5 (5=81-100%) | 5 (5=81-100%) | 5 (5=81-100%) | 5 (5=81-100%)
CS(=O)(=O)c1ccc(-n2nc(C(F)F)cc2Cc2ncc(Cl)cn2)cc1 [Compound 1.027] | 5 (5=81-100%) | 5 (5=81-100%) | 5 (5=81-100%) | 5 (5=81-100%) | 5 (5=81-100%) | 5 (5=81-100%) | 5 (5=81-100%) | 5 (5=81-100%)
N#Cc1ccc(-n2nc(C(F)F)cc2Cc2ncc(Cl)cn2)cc1 [Compound 1.028] | 5 (5=81-100%) | 5 (5=81-100%) | 5 (5=81-100%) | 4 (4=61-80%) | 5 (5=81-100%) | 5 (5=81-100%) | 5 (5=81-100%) | 5 (5=81-100%)
FC(F)c1cc(Cc2ncc(Cl)cn2)n(-c2ccc(Cl)cc2)n1 [Compound 1.029] | 5 (5=81-100%) | 5 (5=81-100%) | 4 (4=61-80%) | 4 (4=61-80%) | 5 (5=81-100%) | 5 (5=81-100%) | 5 (5=81-100%) | 5 (5=81-100%)
FC(F)c1cc(Cc2ncc(Cl)cn2)n(-c2cnc(Cl)c(Cl)c2)n1 [Compound 1.030] | 5 (5=81-100%) | 5 (5=81-100%) | 4 (4=61-80%) | 4 (4=61-80%) | 5 (5=81-100%) | 5 (5=81-100%) | 5 (5=81-100%) | 4 (4=61-80%)
FC(F)c1cc(Cc2ncc(Cl)cn2)n(-c2cccc(Cl)c2)n1 [Compound 1.031] | 4 (4=61-80%) | 5 (5=81-100%) | 4 (4=61-80%) | 4 (4=61-80%) | 5 (5=81-100%) | 5 (5=81-100%) | 5 (5=81-100%) | 5 (5=81-100%)
Fc1ccc(-n2nc(C(F)F)cc2Cc2ncc(Cl)cn2)cc1F [Compound 1.032, 5-chloro-2-[[5-(difluoromethyl)-2-(3,4-difluorophenyl)pyrazol-3-yl]methyl]pyrimidine] | 5 (5=81-100%) | 5 (5=81-100%) | 4 (4=61-80%) | 4 (4=61-80%) | 5 (5=81-100%) | 5 (5=81-100%) | 5 (5=81-100%) | 5 (5=81-100%)
